Here are results for three substances from US20130224128A1, “DENTAL CLEANSER COMPOSITION FOR IMPROVING ADHESION TO TEETH” (NANO INTELLIGENT BIOMEDICAL ENGINEERING CO., LTD., priority 2010, published 2013).

Where two headings read alike, the source gives them in different places.

For this data set the following is noted: surfactant applied for 2 minutes to plates coated with 100 μg/ml LPS, absorbance 620 nm, FIG. 6.

Description: To measure the removal of bacterial lipopolysaccharide, a HEK-Blue LPS detection kit (InvivoGen, San Diego, Calif., USA) was used. 24-well plates were coated with 100 μg/ml of an LPS standard (E. coli K12 LPS) and allowed to stand at 4° C. for 8 hours. […] HEK-Blue cells were dispersed in detection media, after which the cells were seeded onto the plates at a density of 4×10^4 cells/well and cultured at 37° C. for 24 hours. The absorbance at a wavelength of 620 nm was measured using a microplate reader (BIO-TEK, Winooski, Vt., USA). The ratio of the remaining LPS standard was calculated using the absorbance of a lipopolysaccharide-free water-coated well as a blank.

In the case of Sorbitan monooleate [Span 80], the “relative ratio of the remaining LPS standard” value is recorded as “higher in the order of polyoxyethylene (HLB 10)<Tween 20 (HLB 16)<Span 80 (HLB 4)”.

Consider octyl phenol ethoxylate [Triton X-100], for which the “relative ratio of the remaining LPS standard” value was “the ratio of the remaining LPS standard was the lowest”. Besides, the “relative ratio of the remaining LPS standard” value (listed as octyl phenol ethoxylate) is “has the best effect on the removal of lipopolysaccharide”.

In the case of Tween 20, the “relative ratio of the remaining LPS standard” value is reported as “higher in the order of polyoxyethylene (HLB 10)<Tween 20 (HLB 16)<Span 80 (HLB 4)”.
